Key:
[1] = target: yeast α-glucosidase (Saccharomyces cerevisiae, UniProt P53341); experiment: Yeast α-glucosidase inhibition assay (pNPG substrate, absorbance at 405 nm); format: biochemical; conditions: qualitative statement
Experimental: (§1) In this study the inhibition study of both yeast and mammalian α-glucosidase were measured through the earlier reported bioassay method with minor changes ([4]). This test was carried out using the substrate p-nitrophenyl-α-D-glucopyranoside (pNPG), which is hydrolyzed by α-glucosidase to release the product p-nitrophenol, a color agent that can be monitored at 405 nm. For yeast α-glucosidase, mixture contained 20 µL of the enzyme (0.5 unit/mL), 120 µL of 0.1 M phosphate buffer (pH 6.9) and 10 µL of test sample at various concentrations. The mixed solution was incubated in 96-well plates at 37 °C for 15 min. After preincubation the enzymatic reaction was initiated by adding 20 µL of 5 mM pNPG solution in 0.1 M phosphate buffer (pH 6.9) and the reaction mixture was incubated for another 15 min at 37 °C. The reaction was terminated by adding 80 µL of 0.2 M sodium carbonate solution and then absorbance reading was recorded at 405 nm by microplate reader. The reaction system without tested samples was used as control and the system without α-glucosidase was used as blank for correcting the background absorbance. The inhibitory rate of sample on α-glucosidase was calculated by the following formula:
(§2) % Inhibition=control absorbance-sample absorbance/control absorbance×100

[2] = test system: rat intestinal α-glucosidase; experiment: Mammalian α-glucosidase inhibition assay (rat intestinal acetone powder, pNPG substrate); format: biochemical; conditions: for inhibition of rat intestinal α-glucosidase (in words): qualitative statement; for IC50: rat intestinal α-glucosidase, pNPG, pH 6.9, 37 °C, na: no activity
Experimental: as §1, §2
The mammalian α-glucosidase were prepared from rat intestinal acetone powder (1 g), which was extracted by 25 mL of 0.1 M phosphate buffer (pH 6.9) containing 5 mM EDTA at ambient temperature. After sonication (10 min) and centrifugation (10000×g, 20 min) the obtained supernatant was dialyzed against […] phosphate buffer (pH 6.9) for 24 h. The final supernatant was used for the assay. The mammalian α-glucosidase inhibition test was carried out in the same manner as that of the yeast α-glucosidase.

yeast α-glucosidase, sequence (P53341 whole entry): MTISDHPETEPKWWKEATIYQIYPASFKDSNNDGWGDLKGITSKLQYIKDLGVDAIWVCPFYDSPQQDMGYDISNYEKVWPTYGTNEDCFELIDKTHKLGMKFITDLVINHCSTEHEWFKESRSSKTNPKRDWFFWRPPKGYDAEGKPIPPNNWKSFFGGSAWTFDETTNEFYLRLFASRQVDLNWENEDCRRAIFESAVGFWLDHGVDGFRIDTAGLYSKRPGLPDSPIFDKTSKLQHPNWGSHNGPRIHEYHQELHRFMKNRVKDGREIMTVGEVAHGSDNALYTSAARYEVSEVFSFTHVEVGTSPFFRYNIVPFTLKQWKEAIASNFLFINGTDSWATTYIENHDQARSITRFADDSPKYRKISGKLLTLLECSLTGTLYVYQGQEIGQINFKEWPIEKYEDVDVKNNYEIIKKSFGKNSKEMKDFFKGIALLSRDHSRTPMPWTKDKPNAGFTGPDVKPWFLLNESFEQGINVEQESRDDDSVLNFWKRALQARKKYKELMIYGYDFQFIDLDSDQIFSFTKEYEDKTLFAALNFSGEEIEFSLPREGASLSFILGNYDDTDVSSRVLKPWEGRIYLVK

Row | IC50 [2] [µM] | Compound | inhibition of yeast α-glucosidase (in words) [1] | inhibition of rat intestinal α-glucosidase (in words) [2]
1 | 21.8 ± 1.7 | O=C1c2ccccc2C(=O)N1C(Cc1ccc(O)cc1)C1=Nc2cccc3cccc(c23)N1 (stereo not shown) [5d, 2-(2-(4-hydroxyphenyl)-1-(1H-perimidin-2-yl)ethyl)isoindoline-1,3-dione] | significantly higher inhibitory action than acarbose | significantly higher inhibitory action than acarbose
2 | 35.9 ± 2.3 | O=C1c2ccccc2C(=O)N1C(Cc1ccccc1)C1=Nc2cccc3cccc(c23)N1 (stereo not shown) [5c, 2-(1-(1H-perimidin-2-yl)-2-phenylethyl)isoindoline-1,3-dione] | significantly higher inhibitory action than acarbose | significantly higher inhibitory action than acarbose

Further lines, the compound ahead of its results:

Row | Compound | IC50 [2] [µM] | inhibition of yeast α-glucosidase (in words) [1] | inhibition of rat intestinal α-glucosidase (in words) [2]
3 | O=C1c2ccccc2C(=O)N1C(Cc1ccccc1)c1nc2ccccc2[nH]1 (stereo not shown) [4c, 2-(1-(1H-benzo(d)imidazol-2-yl)-2-phenylethyl)isoindoline-1,3-dione] | 48.5 ± 2.3 | significantly higher inhibitory action than acarbose | significantly higher inhibitory action than acarbose
4 | O=C1c2ccccc2C(=O)N1CC1=Nc2cccc3cccc(c23)N1 [5a, 2-((1H-perimidin-2-yl)methyl)isoindoline-1,3-dione] | – | did not exert good inhibition activity | did not exert good inhibition activity
5 | C[C@H]1O[C@H](O[C@H]2[C@H](O)[C@@H](O)[C@@H](O[C@H]3[C@H](O)[C@@H](O)C(O)O[C@@H]3CO)O[C@@H]2CO)[C@H](O)[C@@H](O)[C@@H]1N[C@H]1C=C(CO)[C@@H](O)[C@H](O)[C@H]1O (stereo partly shown) [Acarbose, reference compound] | 37.5 ± 1.4 | – | –
6 | CC(C)CC(C1=Nc2cccc3cccc(c23)N1)N1C(=O)c2ccccc2C1=O (stereo not shown) [5e, 2-(3-methyl-1-(1H-perimidin-2-yl)butyl)isoindoline-1,3-dione] | – | did not exert good inhibition activity | did not exert good inhibition activity
7 | CCC(C)C(C1=Nc2cccc3cccc(c23)N1)N1C(=O)c2ccccc2C1=O (stereo not shown) [5b, 2-(2-methyl-1-(1H-perimidin-2-yl)butyl)isoindoline-1,3-dione] | – | did not exert good inhibition activity | did not exert good inhibition activity
8 | O=C1c2ccccc2C(=O)N1C(Cc1ccc(O)cc1)c1nc2ccccc2[nH]1 (stereo not shown) [4d, 2-(1-(1H-benzo(d)imidazol-2-yl)-2-(4-hydroxyphenyl)ethyl)isoindoline-1,3-dione] | 36.7 ± 2.9 | significantly higher inhibitory action than acarbose | significantly higher inhibitory action than acarbose

— PMC4518100, “Design and Synthesis of New Benzimidazole and Pyrimidine Derivatives as α-glucosidase Inhibitor” (Iranian Journal of Pharmaceutical Research : IJPR, 2015)
